Source: PubChem BioAssay (NCI)
Where “and” joins values, the source holds several entries; their conditions need not be identical. Equal values may be shown once.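 Following 48 hours of exposure in 96-well plates, responses at five concentrations were used to interpolate endpoints linearly. GI50: concentration for 50% inhibition of growth. TGI: total growth inhibition.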

Tests used:
Assay in all cases: growth of human tumour cells (NCI), 48 h
[1] = system: NCI/ADR-RES ovarian
[2] = system: PC-3 prostate
[3] = system: T-47D breast
[4] = system: DLD-1 colon
[5] = system: KM20L2 colon
[6] = system: LXFL 529 NSCLC
[7] = system: M19-MEL melanoma
[8] = system: SNB-78 CNS
[9] = system: XF 498 CNS

Compound	GI50 [1]	TGI [1]	GI50 [2]	TGI [2]	GI50 [3]	TGI [3]	TGI [4] [µM]	TGI [5] [µM]	TGI [6] [µM]	TGI [7] [µM]	TGI [8] [µM]	TGI [9] [µM]
O=[N+]([O-])c1ccc(N2CCN(Cc3ccccc3)CC2)c2c1no[n+]2[O-]	2.27 µM	12.3 µM	1.25 µM	2.7 µM	1.41 µM	3.89 µM						
COC(=O)/C=C/c1cc(O)c2c(c1)C(C(=O)OC)C(c1ccc(O)c(O)c1)O2 (centres undefined)	0.11 µM and 0.0614 µM	> 100 µM	0.573 µM and 0.817 µM	69 µM and 65.8 µM	1.55 µM	57.9 µM						
O=C1OC(c2ccco2)=N/C1=C\c1ccc(Cl)c(Cl)c1				> 100 µM		> 100 µM						
CCNc1nnc(CSc2nc(-c3ccccc3)c(-c3ccccc3)[nH]2)s1							52.7	46.1	64.8	32.1	96.3	
COc1cc2oc(=O)cc(C)c2cc1[N+](=O)[O-]		> 79.3 µM		> 67.6 µM		77.2 µM						
O=C(O)c1ccc(NC(=O)C2C(=O)C(=O)N(c3ccc(C(=O)O)cc3)C2=O)cc1 (centres undefined)							> 100	> 100		> 100	> 100	> 100
Cn1c(=O)oc2cc(C(=O)CSC(=S)N3CCCCCC3)ccc21		> 100 µM		> 100 µM		> 100 µM						
O=[N+]([O-])c1cnc(Sc2ccncn2)c([N+](=O)[O-])c1	16.6 µM	33.7 µM	15.1 µM	29.2 µM	1.78 µM	3.8 µM						
c1ccc(N=C2c3ccccc3CN2c2ccccc2)cc1		> 100 µM		> 100 µM		> 100 µM						
Cc1ccc(Nc2nc(NCCO)c3ccccc3n2)cc1C	7.18 µM	20.6 µM	4.24 µM	16.7 µM	2.29 µM	10.4 µM						
Nc1ccccc1C#CC#Cc1ccccc1N	4.63 µM	29.7 µM	23.1 µM	> 100 µM	> 100 µM	> 100 µM						
C[Si](C)(C)C#CCO[Si](C)(C)C		> 100 µM		> 100 µM		> 100 µM						
CNc1ccccc1C(=O)N/N=C/C=C/c1ccccc1	0.568 µM	> 100 µM	2.56 µM	> 100 µM	3.48 µM	> 86.9 µM						
S=CN1CCCCC1		> 100 µM		> 100 µM		> 100 µM						
CN(C)c1ccc(-c2cc(=O)c3ccccc3[nH]2)cc1							> 100	> 100	> 100	> 100	> 100	
CN/N=C(/Cc1occc(=O)c1O)C(=O)Nc1ccc(C)c(C)c1								> 100	> 100	> 100	> 100	
CC(O)C1OC(O)C2OC(C)(C)OC12 (centres undefined)		> 100 µM		> 100 µM		> 100 µM						
CN(C)CCNC(=O)c1ccc(Nc2nc3ccccc3c3occc23)cc1	8.92 µM	22.6 µM	3 µM	14.3 µM	16.4 µM	39.8 µM						
Nc1c(C(=O)Nc2ccccc2)sc2nc3c(cc12)CCCCCC3	0.332 µM	3.32 µM	0.44 µM	> 100 µM	0.892 µM	20.5 µM						
CCC1=C(C)/C(=C/c2[nH]c(C)c(C(=O)CCCCC(=O)OC)c2C)N=C1c1ccc[nH]1	33.2 µM	> 96.4 µM	4.4 µM	18 µM	3.45 µM	13.8 µM						
CCCCCCCCCCCCN1C(C)=CS/C1=C\C=C\c1scc(C)[n+]1CCCCCCCCCCCC	3.06 µM	34.4 µM	1.03 µM	3.46 µM	0.817 µM	6.77 µM						
CCN1C(=O)C/C(=C\C(C)=O)Nc2ccccc21	> 100 µM	> 100 µM	> 100 µM	> 100 µM	> 100 µM	> 100 µM	44.7		> 100	> 100	> 100	> 100
C=C1C(=O)O[C@H]2[C@H]1CC/C(COC(=O)C(=O)c1c[nH]c3ccccc13)=C\CC[C@@]1(C)O[C@@H]21	3.92 µM	19.4 µM	2.13 µM	4.37 µM	1.61 µM	4.47 µM						
COc1ccc(-c2ccc(C3CC(c4ccc(O)cc4)=NN3)o2)c([N+](=O)[O-])c1 (centres undefined)	38.5 µM	> 100 µM	25.9 µM	> 100 µM	75 µM	> 100 µM						

Compound	GI50 [1]	TGI [1]	GI50 [2]	TGI [2]	GI50 [3]	TGI [3]	TGI [4] [µM]	TGI [5] [µM]	TGI [6] [µM]	TGI [7] [µM]	TGI [8] [µM]	TGI [9] [µM]
CN(C)/[N+]([O-])=N/Oc1cc(Nc2cccc(C(=O)O)c2)c([N+](=O)[O-])cc1[N+](=O)[O-]	> 100 µM	> 100 µM	> 100 µM	> 100 µM								
N#CC1=C(N)Oc2cc3c(cc2C1c1cccs1)OCO3 (centres undefined)	0.232 µM	0.707 µM	1.16 µM	> 100 µM	0.595 µM	> 70.5 µM						
Cn1c(C(N)=O)cc2c1-c1nc(Nc3ccccc3)ncc1CCC2	6.3 µM	49.8 µM	5.19 µM	41.6 µM	7.12 µM	37.4 µM						
COc1ccc(C(=O)/C=C/c2ccc(O)c(O)c2F)c(OC)c1	4.16 µM	67.7 µM and > 100 µM	6.18 µM	17.7 µM and 24 µM	3.21 µM	75 µM and > 100 µM						
COc1cccc(-c2nn(-c3ccccc3)cc2-c2ccnc(NCCNS(=O)(=O)c3ccc(Cl)cc3)c2)c1	4.29 µM	> 100 µM	2.44 µM	> 100 µM	2.52 µM	8.66 µM						
O=C1/C(=C/c2cccc([N+](=O)[O-])c2)COc2ccc(O)c(O)c21	2.43 µM	18 µM	1.16 µM	4.14 µM	1.17 µM	3.92 µM						
COc1cc(/C=C(/C)[N+](=O)[O-])ccc1O	3.18 µM and 3.08 µM	11.8 µM and 10.9 µM	2.68 µM and 2.74 µM	7.27 µM and 6.86 µM	2.07 µM and 2.25 µM	5.05 µM and 5.72 µM						
CC(C(=O)N1C(=O)N(C(=O)C(C)C(O)c2ccccc2)C(c2ccccc2)C1c1ccccc1)C(O)c1ccccc1 (centres undefined)						> 100 µM						
O=C(Nc1ccc(-c2nc3cc4ccccc4cc3[nH]2)cc1)c1cccc(Br)c1	15.3 µM	58.6 µM	3.02 µM	13.4 µM	4.09 µM	18.1 µM						
Cc1cc2c(c3c1c1ccccc1n3C)C(=O)C=CC2=O		> 100 µM		36.3 µM		48.8 µM	20.4		16.7		98.7	37.9
Oc1cccc2c1NC1=C(CCC/C1=C\c1ccccc1)C2								> 100	> 100	> 100		> 100
CCN(CC)CCn1c(C(C)(C)C)nc2ccccc21		> 100 µM		> 100 µM								
Oc1ccc(C(c2ccccc2)(c2ccccc2)c2ccccc2)cc1	15 µM	28.6 µM	20.6 µM	36.1 µM								
O=C(/C=C/c1ccco1)c1ccc(Nc2nc(Nc3ccc(F)cc3)nc(Nc3ccc(Cl)cc3)n2)cc1	26.1 µM	> 100 µM	1.54 µM	> 37.9 µM	20.3 µM	> 100 µM						
COc1ccc(C(=O)Cn2c(C(=O)c3ccc(Cl)cc3)nc3ccccc32)cc1	5.15 µM	> 37.4 µM	21.2 µM	> 100 µM	> 38.9 µM	> 100 µM						
Oc1ccc2ccccc2c1C=NCCCN=Cc1c(O)ccc2ccccc12	14.6 µM	49.4 µM	21.6 µM	> 100 µM	6.66 µM	43 µM						
O=C1c2ccccc2-c2c1c1ccccc1c(=O)n2CCCNCCCn1c2c(c3ccccc3c1=O)C(=O)c1ccccc1-2	3.94 µM	17.3 µM	2.08 µM	5.52 µM	10.7 µM	27.7 µM						
CC1=C(C)C(=O)c2c(c(C(=O)c3ccccc3)c3nc4ccccc4n3c2C)C1=O	> 100 µM	> 100 µM	> 100 µM	> 100 µM	> 100 µM	> 100 µM						
Cn1ccnc1C(=O)/C=C/c1ccc(CC(=O)Nc2ccc(Cl)cc2)cc1	2.22 µM	> 25 µM	1.37 µM	> 25 µM	4.3 µM	> 25 µM						
O=C(Nc1ccc(Cl)c([N+](=O)[O-])c1)Nc1nc2ccccc2s1	2.86 µM	11.9 µM	3.43 µM	13 µM	2.48 µM	10.6 µM						
Cc1ccc(NC(c2ccccc2)c2ccc3cccnc3c2O)cc1 (centres undefined)		15.2 µM		14.3 µM		36 µM						
CCNC(=O)C[C@@H]1N=C(c2ccc(Cl)cc2)c2cc(OC)ccc2-n2c(C)nnc21	> 56 µM	> 100 µM	3.15 µM	> 100 µM	2.9 µM	> 100 µM						
O=C(Nc1ccc(S(=O)(=O)Nc2nccs2)cc1)c1cccnc1Nc1cccc(Cl)c1	15.6 µM	45.7 µM	14.3 µM	43 µM	8.42 µM	> 100 µM						
COc1ccc(CN2C(=O)/C(=C\c3cc(OC)c(OC)c(OC)c3)c3cc(OC)ccc32)cc1	2.69 µM	9.11 µM	3.35 µM	19.5 µM	2.34 µM	7.62 µM						
